Measured values: patent US5135943A, “1H-imidazole derivative compounds and pharmaceutical compositions containing the same” (priority 1984, dated 1992)
≈ marks a conversion by molar mass, not a printed value. Where two headings read alike, the source gives them in different places.

Key:
Candida albicans [1] = assay: MIC by two-fold dilution, Candida albicans; assay type: cell-based
Source text: (§1) A number of compounds with antimycotic and/or fungicidal properties, which are useful in pharmaceutical compositions, are currently known. These include the commercially successful Miconazole having the formula II [drawing 2] Miconazole has a structure chemically similar to the 1H-imidazole derivative compounds of the invention. Miconazole is effective against a number of yeasts, dermatophytes and fungi. This effectiveness can be measured by culturing these microorganisms in vitro and applying a preparation containing the antimycotic compound, Miconazole. The results of this type of in vitro experiment is expressed in terms of the Minimum Inhibitory Concentration (MIC), i.e. the minimum concentration which inhibits the growth of the microorganism. For example, the MIC for Miconazole against a particular Candida albicans strain is found to be 10.7 micrograms/milliliter. The effectiveness of Miconazole as an antimycotic compound is measured in vivo by applying a suspension containing the drug to the skin of a number of animals and measuring the proportion of animals on which growth of the microorganism is inhibited as a function of time. Typically, after 25 days, about 1/4 of the animals were cured, when treated with a cream containing 2 % by weight Miconazole. Of course, any pharmaceutical preparation for treating a disease in a human must satisfy certain toxicity requirements. […] Toxicity tests have been performed on the IH-imidazole derivative compounds of the invention and on Miconazole and other known compounds having antimycotic properties. In toxicity tests the LD50 (the dose at which 50 % mortality occurs) is measured.
(§2) Minimum Inhibitory Concentrations (MICS) of Sertaconazole and Miconazole against 107 yeasts, 47 dermatophytes and 4 fungi were determined by a two-fold dilution method.

Candida tropicalis = assay: MIC by two-fold dilution, Candida tropicalis; assay type: cell-based; settings: read-out: Minimum Inhibitory Concentration
Description: as §2

Torulopsis glabrata = assay: MIC by two-fold dilution, Torulopsis glabrata; assay type: cell-based; settings: Nakaseomyces glabratus; 10 strains; read-out: Minimum Inhibitory Concentration
Description: as §2

Candida s.p. = assay: MIC by two-fold dilution, Candida s.p.; assay type: cell-based; settings: Candida; 15 strains; read-out: Minimum Inhibitory Concentration
Description: as §2

Trichophyton rubrus = assay: MIC by two-fold dilution, Trichophyton rubrus; assay type: cell-based; settings: 10 strains, read-out: Minimum Inhibitory Concentration
Description: as §2

[2] = system: Trichophyton menta-grophytes; assay: MIC by two-fold dilution, Trichophyton mentagrophytes; assay type: cell-based; settings: 30 strains, read-out: Minimum Inhibitory Concentration
Description: as §2

Microsporum canis = assay: MIC by two-fold dilution, Microsporum canis; assay type: cell-based; settings: 4 strains, read-out: Minimum Inhibitory Concentration
Description: as §2

Dermatophytes, Others = assay: MIC by two-fold dilution, other dermatophytes; assay type: cell-based; settings: 3 strains; read-out: Minimum Inhibitory Concentration
Description: as §2

[3] = system: Scopulariopsis brevi-caulis; assay: MIC by two-fold dilution, Scopulariopsis brevicaulis; assay type: cell-based; settings: Scopulariopsis; 4 strains; read-out: Minimum Inhibitory Concentration
Description: as §2

Gram-positive germs = assay: MIC by two-fold dilution, Gram-positive germs; assay type: cell-based; settings: 21 strains; read-out: Minimum Inhibitory Concentration
[4] = system: Trichophyton mcntagrophytes; assay: Dermal infection in albino female guinea pigs by Trichophyton mentagrophytes; assay type: in vivo, guinea pig; settings: for % microbiological healing / Negative Cultures to Total Cultures: 2% cream
Source text: as §1
Dermal infection in albino female guinea pigs by Trichophyton mcntagrophytes has been studied. Animals were distributed in three groups: a) a control group of infected untreated animals; b) a scrtaconazole group of infected and treated animals; and c) a miconazole group of infected and treated animals. Animals were depleted and a 0.4 ml suspension of the microorganism was applied on the depleted area. Treatment with each of the test drugs was made by application of 1 g of 2% cream on the depleted area on the 4th, 5th and 6th day after infection.

Candida albicans [5] = assay: Vaginal infection by Candida albicans in female mice; assay type: in vivo; settings: seven days after infection
Source text: Besides the above in vivo experiments vaginal infection by Candida albicans was studied in female mice. Standard methods were used. […] Similar results were found in experiments where repeated dosages of active compound were used after infection. These in vivo results confirmed the surprising speed of action of Sertaconazole in comparison to the prior art compounds.

[6] = Acute toxicity (LD50) in mouse, three administration routes; settings: in vivo
Source text: as §1
(§3) Toxicity of Sertaconazole, Microazole and Martin's compounds 1, 2 and 3, as shown below, has been tested by standard methods. Both acute toxicity, subacute toxicity and chronic toxicity were studied
(§4) Oral, intraperitoneal and subcutaneous acute toxicity of sertaconazole and miconazole have been investigated. LD50 in mouse and rat, male and female, were measured.

[7] = Acute toxicity (LD50) in rat, three administration routes; settings: in vivo, males
Description: as §3, §4

rats = assay: Prolonged subacute toxicity in rats; assay type: in vivo, rat; settings: p.o.
Description: (§5) In a study of prolonged subacute toxicity of Miconazole in rats, among other effects, significant hepatomegalias in females with a dosage of under 30 mg/kg p.o. and in males with a dosage of under 60 mg/kg p.o. were observed.

Chronic toxicity in rats = assay type: in vivo, rat; settings: rat, in vivo; 100 mg/kg or more dosage
[8] = Safe dosage based on the toxicity findings; settings: rat, in vivo
Description: as §5
Based on these finds a safe dosage for Miconazole is about 10 mg/kg, while a safe dosage for Sertaconzole is about 150 mg/kg, i.e about 15 times higher.

cutaneous mycosis = assay: Randomized double blind clinical trials, cutaneous mycosis; settings: 2 % cream (nitrate salts)
Description: (§6) Human clinical trials were performed with Sertaconazole nitrate and Miconazole nitrate acid addition salts. Randomized double blind trials were carried out with 502 patients suffering from cutaneous mycosis as confirmed by microscopic examination and microbiological culture. 247 patients were treated with 2 % Sertaconazole cream and the remaining 255 patients were treated with 2 % Miconazole cream. All patients received scheduled treatment for 28 days and were followed up for an additional 28 days for possible relapses.

Trichophyton rubrum = assay: Randomized double blind clinical trials, Trichophyton rubrum infection; assay type: in vivo, human; settings: 2 % cream (nitrate salts), 28 days treatment
Description: as §6

C. albicans 14 = assay: MIC, comparative in vitro testing against Martin compounds; assay type: cell-based; settings: Candida albicans, 14, 48 h, Casitone medium, reading time 48 h; SZ vs M4
Description: (§7) Minimum Inhibitory Concentrations (MICS) of Sertaconazole were also measured in comparison to four of the compounds described in the Martin Patent, including a compound, referred to herein as Martin Compound 1, which has the same structure as Sertaconazole, expect that the sulfur in the benzothiophene ring is replaced by an oxygen.
(§8) The results of comparative in vitro testing of Sertaconazole and these four Martin compounds are shown in the following Table II against 16 microorganisms. The reading time is the time interval from the time of inoculation to the time of measurement.

C. albicans 15 = assay: as above; assay type: cell-based; settings: Candida albicans, 15, 48 h, Casitone medium, reading time 48 h; SZ vs M4
Description: as §7, §8

C. albicans 31 = assay: as above; assay type: cell-based; settings: Candida albicans, 31; YNB medium, reading time 48 h; SZ vs M4; read-out: MIC
Description: as §7, §8

C. albicans 32 = assay: as above; assay type: cell-based; settings: Candida albicans, 32; YNB medium, reading time 48 h; SZ vs M4; read-out: MIC
Description: as §7, §8

C. albicans ATCC E-10231 = assay: as above; assay type: cell-based; settings: Candida albicans, ATCCE10231; Casitone medium, reading time 48 h; SZ vs M4; read-out: MIC
Description: as §7, §8

C. guillermondii = assay: as above; assay type: cell-based; settings: 48 h, reading time 48 h, SZ vs M4, read-out: MIC
Description: as §7, §8

C. krusei 24 = assay: as above; assay type: cell-based; settings: Pichia kudriavzevii, 24, 48 h, reading time 48 h, SZ vs M4, read-out: MIC
Description: as §7, §8

C. parapsilosis 19 = assay: as above; assay type: cell-based; settings: 19, 48 h, reading time 48 h, SZ vs M4
Description: as §7, §8

C. pseudotropicalis 21 = assay: as above; assay type: cell-based; settings: Kluyveromyces marxianus, 21; Sabouraud medium, reading time 48 h; SZ vs M4; read-out: MIC
Description: as §7, §8

C. stellatoidea 36232 = assay: as above; assay type: cell-based; settings: Candida albicans, 36232, 48 h, reading time 48 h, SZ vs M4
Description: as §7, §8

C. tropicalis 25 = assay: as above; assay type: cell-based; settings: Candida tropicalis, 25, 48 h, YNB medium, reading time 48 h; SZ vs M4
Description: as §7, §8

16 microorganisms = assay: Geometric mean of all MIC measurements, comparative in vitro testing; assay type: cell-based; settings: 48 h, SZ vs M4, reading time 48 h; read-out: Geometric means of MIC
Description: as §7, §8

[9] = Acute toxicity in Swiss mice i.p.; settings: mouse, in vivo, ip
Source text: Such signs included convulsions and Straub tail(vertical righting of the tail).

Structure (SMILES): Clc1ccc(COC(Cn2ccnc2)c2ccc(Cl)cc2Cl)c(Cl)c1 (stereo not shown) [Miconazole, reference compound]
- MIC (Candida albicans [1]; Candida albicans, 52 strains, read-out: Minimum Inhibitory Concentration): 10.7 µg/mL (≈ 25.7 µM)
- MIC (Candida albicans [1]; a particular Candida albicans strain, read-out: MIC): 10.7 µg/mL (≈ 25.7 µM)
- MIC (Candida tropicalis): 5.6 µg/mL (≈ 13.5 µM)
- MIC (Torulopsis glabrata): 1.1 µg/mL (≈ 2.64 µM)
- MIC (Candida s.p.): 0.95 µg/mL (≈ 2.28 µM)
- MIC (Trichophyton rubrus): 0.3 µg/mL (≈ 0.721 µM)
- MIC [2]: 2.8 µg/mL (≈ 6.73 µM)
- MIC (Microsporum canis): 2 µg/mL (≈ 4.81 µM)
- MIC (Dermatophytes, Others): 4 µg/mL (≈ 9.61 µM)
- MIC [3]: 32 µg/mL (≈ 76.9 µM)
- MIC (Gram-positive germs): 0.88 µg/mL (≈ 2.11 µM)
- % microbiological healing ([4]; 18 days postinfection): 6%
- Negative Cultures to Total Cultures ([4]; 18 days postinfection): 3/48
- % microbiological healing ([4]; 25 days postinfection): 28%
- Negative Cultures to Total Cultures ([4]; 25 days postinfection): 13/48
- % microbiological healing ([4]; 32 days postinfection): 44%
- Negative Cultures to Total Cultures ([4]; 32 days postinfection): 21/48
- proportion of animals cured ([4]; after 25 days, cream containing 2 % by weight): about 1/4
- animals healed (Candida albicans [5]): 12.5%
- LD50 ([6]; ip, intraperitoneal): ~600 mg/kg
- LD50 ([6]; ip, intraperitoneal, males): 662 mg/kg
- LD50 ([6]; po): ~2500 mg/kg
- LD50 ([6]; po, males): 2560 mg/kg
- LD50 ([6]; sc, subcutaneous): > 5000 mg/kg
- LD50 ([6]; sc, subcutaneous, males): > 5000 mg/kg
- LD50 ([7]; ip, intraperitoneal): 1180 mg/kg
- LD50 ([7]; oral): 920 mg/kg
- LD50 ([7]; sc, subcutaneous): > 5000 mg/kg
- dosage with significant hepatomegalias (rats; females): under 30 mg/kg
- dosage with significant hepatomegalias (rats; males): under 60 mg/kg
- mortality (Chronic toxicity in rats): 32%
- NOAEL [8]: ~10 mg/kg
- cases of contact dermatitis (cutaneous mycosis): 5 cases
- effectiveness against Trichophyton rubrum (Trichophyton rubrum): 79%

Structure (SMILES): Clc1ccc(C(Cn2ccnc2)OCc2coc3cc(Cl)cc(Cl)c23)c(Cl)c1 (stereo not shown) [Martin compound 4, reference compound]
- MIC (C. albicans 14): 0.5 µg/mL (≈ 1.1 µM)
- MIC (C. albicans 15): 0.03 µg/mL (≈ 0.0658 µM)
- MIC (C. albicans 31): 8 µg/mL (≈ 17.5 µM)
- MIC (C. albicans 32): 8 µg/mL (≈ 17.5 µM)
- MIC (C. albicans ATCC E-10231): 0.5 µg/mL (≈ 1.1 µM)
- MIC (C. guillermondii; Casitone medium): 0.5 µg/mL (≈ 1.1 µM)
- MIC (C. guillermondii; YNB medium): 0.5 µg/mL (≈ 1.1 µM)
- MIC (C. krusei 24; Casitone medium): 0.5 µg/mL (≈ 1.1 µM)
- MIC (C. krusei 24; YNB medium): 0.5 µg/mL (≈ 1.1 µM)
- MIC (C. parapsilosis 19; Sabouraud medium): 0.5 µg/mL (≈ 1.1 µM)
- MIC (C. parapsilosis 19; YNB medium): 0.5 µg/mL (≈ 1.1 µM)
- MIC (C. pseudotropicalis 21): 0.03 µg/mL (≈ 0.0658 µM)
- MIC (C. stellatoidea 36232; Casitone medium): 0.06 µg/mL (≈ 0.132 µM)
- MIC (C. stellatoidea 36232; Sabouraud medium): 0.5 µg/mL (≈ 1.1 µM)
- MIC (C. stellatoidea 36232; YNB medium): 0.5 µg/mL (≈ 1.1 µM)
- MIC (C. tropicalis 25): 8 µg/mL (≈ 17.5 µM)
- MIC (16 microorganisms): 0.518 µg/mL (≈ 1.14 µM)
- LD50 [9]: < 1000 mg/kg
